This note sets out measurements from article PMC5209314, “Purification and characterization of a novel glutamate dehydrogenase from Geotrichum candidum with higher alcohol and amino acid activity” (AMB Express, 2017).

Format in all cases: biochemical
Assay [1] deals with T1, glutamate dehydrogenase (GDH) from Geotrichum candidum S12 (Geotrichum candidum, UniProt A0A023RBK5).
T1 construct: identified by PMF similarity to Yaliof17820p (Yarrowia homologue)
Description: activity towards hexanol, GC. The settings on record: read-out: Relative activity (%)^a. The text has this: activity towards hexanol, GC on glutamate dehydrogenase (GDH) from Geotrichum candidum S12

Assay [2] has as its target T1, glutamate dehydrogenase (GDH) from Geotrichum candidum S12. Description: residual activity towards hexanol, GC. The settings on record: read-out: Relative activity (%)^a. From the text:
residual activity towards hexanol, GC on glutamate dehydrogenase (GDH) from Geotrichum candidum S12

For assay [3] the target is unchanged. Description: activity towards hexanol, GC. The following applies: 0.3 mmol/L NAD+, 9.8 mmol/L hexanol, pH 4.0, 30 °C.

SMILES strings stand for the structures.

T1 sequence (A0A023RBK5 1-452): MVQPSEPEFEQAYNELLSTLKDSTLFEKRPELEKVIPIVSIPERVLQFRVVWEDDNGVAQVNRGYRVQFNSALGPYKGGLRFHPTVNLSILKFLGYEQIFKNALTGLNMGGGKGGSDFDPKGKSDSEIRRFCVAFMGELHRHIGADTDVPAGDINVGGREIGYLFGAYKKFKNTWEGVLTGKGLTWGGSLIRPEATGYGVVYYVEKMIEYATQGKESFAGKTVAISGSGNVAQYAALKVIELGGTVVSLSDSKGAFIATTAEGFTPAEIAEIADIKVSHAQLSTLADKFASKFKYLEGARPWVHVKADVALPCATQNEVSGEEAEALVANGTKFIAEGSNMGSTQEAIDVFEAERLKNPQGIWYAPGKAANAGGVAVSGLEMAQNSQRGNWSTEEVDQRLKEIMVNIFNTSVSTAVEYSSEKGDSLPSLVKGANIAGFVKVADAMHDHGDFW

On to `Nc1ncnc2c1ncn2[C@@H]1O[C@H](COP(=O)(O)OP(=O)(O)O)[C@@H](O)[C@H]1O` [ADP], for which the activity at 1000 µM in assay [1] was 138 ± 3.72%.
Consider `Nc1ncnc2c1ncn2[C@@H]1O[C@H](COP(=O)(O)OP(=O)(O)OP(=O)(O)O)[C@@H](O)[C@H]1O` [ATP], for which, in assay [2], the activity at 1000 µM was 14.3 ± 0.84%.
Regarding `NC(=O)c1ccc[n+]([C@@H]2O[C@H](COP(=O)(O)OP(=O)(O)OC[C@H]3O[C@@H](n4cnc5c(N)ncnc54)[C@H](O)[C@@H]3O)[C@@H](O)[C@H]2O)c1` [NAD^+], in assay [3], the “activity towards hexanol, GC” value is “the enzyme could use NADP^+ and NAD^+ as a hydrogen acceptor of hexanol”.
